Literature values as cited in US10188693B2, “Methods for treatment of atherosclerosis” (Stealth BioTherapeutics Corp, priority 2012, dated 2019).

Key:
hepatitis C virus (HCV) = settings: in vitro model of HCV infection (alone and with interferon); cited from earlier work
[1] = system: spinal cord injury in rodents; settings: administered both pre- and post-injury; cited from earlier work

For `O=C(O)C[C@H](O)C[C@H](O)/C=C/c1c(C2CC2)nc2ccccc2c1-c1ccc(F)cc1` [pitavastatin], the “anti-HCV effect, in words” value (hepatitis C virus (HCV)) is listed as “anti-HCV effect”.
In the case of `CC[C@H](C)C(=O)O[C@H]1C[C@@H](C)C=C2C=C[C@H](C)[C@H](CC[C@@H]3C[C@@H](O)CC(=O)O3)[C@H]21` [lovastatin], the “anti-HCV effect, in words” value (hepatitis C virus (HCV)) is listed as “anti-HCV effect”.
For `CC(C)c1c(C(=O)Nc2ccccc2)c(-c2ccccc2)c(-c2ccc(F)cc2)n1CC[C@@H](O)C[C@@H](O)CC(=O)O` [atorvastatin], the “anti-HCV effect, in words” value (hepatitis C virus (HCV)) is listed as “anti-HCV effect” and the “effect on spinal cord injury, in words” value [1] is listed as “promoting locomotion and tissue sparing, as well as reducing inflammation”.
